Source: ChEMBL document CHEMBL2016510 (J Med Chem, 2012)

What was measured:
[1] = tested on: Caco-2; test: Apparent permeability from apical to basolateral side in human Caco2 cells after 21 days by UV spectroscopy; format: ADME, cell-based
[2] = target: T1, Sodium channel protein type 5 subunit alpha (Homo sapiens, UniProt Q14524); test: Blockade of human full-length NaV1.5 expressed in HEK293 cells co-transfected with pCD8-IRES-hbeta1 assessed as 0.1 Hz of half-maximal tonic-induced channel current at -120 mV holding potential after 36 to 72 hrs by patch clamp assay; format: cell-based
[3] = target: T1, Sodium channel protein type 5 subunit alpha; test: Blockade of human full-length NaV1.5 expressed in HEK293 cells co-transfected with pCD8-IRES-hbeta1 assessed as 10 Hz of use-dependent-induced channel current at -120 mV holding potential after 36 to 72 hrs by patch clamp assay; format: cell-based
[4] = tested on: Aorta; test: Vasorelaxant activity in potassium depolarized guinea pig aortic strip assessed as inhibition of calcium-induced contraction at 10^-4 M; format: functional, Cavia porcellus; design: scale not given: the % may be the effect or the level left
[5] = Antiarrhythmic activity in guinea pig left atria assessed as increase of 1 Hz-induced alternating current arrhythmia after 60 mins; format: functional, tissue-based; conditions: Cavia porcellus, Cardiac atrium, 1 h
[6] = Negative inotropic activity in guinea pig left atria assessed as decrease of 1 Hz current-induced developed tension at 5 x 10^-5 M relative to control; format: functional, Cavia porcellus, Cardiac atrium; design: scale not given: the % may be the effect or the level left
[7] = Negative inotropic activity in guinea pig left atria assessed as decrease of 1 Hz current-induced developed tension; format: functional, tissue-based; conditions: Cavia porcellus, Cardiac atrium
[8] = Antiarrhythmic activity in guinea pig left atria assessed as increase of 1 Hz-induced alternating current arrhythmia at 10^-4 M after 60 mins relative to control; format: functional; conditions: Cavia porcellus, Cardiac atrium, 1 h
[9] = tested on: Mus musculus; test: Neurotoxicity in mouse assessed as deffect in motor coordination at 25 to 50 mg/kg, po after 15 to 45 mins by rotarod test; format: toxicity, organism-based; design: route oral; conditions: in vivo
[10] = tested on: Caco-2; test: Efflux ratio of permeability from basolateral to apical side to apical to basolateral side in human Caco2 cells after 21 days by UV spectroscopy; format: ADME, cell-based
[11] = tested on: HepG2; test: Cytotoxicity against human HepG2 cells assessed as cell viability after 2 hrs by MTT assay; format: cell-based; conditions: HepG2, 2 h
[12] = tested on: Caco-2; test: Apparent permeability from basolateral to apical side in human Caco2 cells after 21 days by UV spectroscopy; format: ADME, cell-based
[13] = Negative chronotropic activity in guinea pig spontaneously beating right atria assessed as decrease in atrial rate at 10^-4 M relative to control; format: functional, Cavia porcellus, Cardiac atrium; design: scale not given: the % may be the effect or the level left
[14] = Negative chronotropic activity in guinea pig spontaneously beating right atria assessed as decrease in atrial rate; format: functional; conditions: Cavia porcellus, Cardiac atrium
[15] = Negative inotropic activity in guinea pig left atria assessed as decrease of 1 Hz current-induced developed tension at 10^-4 M relative to control; format: functional, Cavia porcellus, Cardiac atrium; design: scale not given: the % may be the effect or the level left
[16] = […] chronotropic activity in guinea pig spontaneously beating right atria assessed as decrease in atrial rate at 5 x 10^-6 M relative to control; format: functional, Cavia porcellus, Cardiac atrium; design: scale not given: the % may be the effect or the level left
[17] = Negative inotropic activity in guinea pig left atria assessed as decrease of 1 Hz current-induced developed tension at 10^-6 M relative to control; format: functional, Cavia porcellus, Cardiac atrium; design: scale not given: the % may be the effect or the level left
[18] = Antiarrhythmic activity in guinea pig left atria assessed as increase of 1 Hz-induced alternating current arrhythmia at 5 x 10^-5 M after 60 mins relative to control; format: functional; conditions: Cavia porcellus, Cardiac atrium, 1 h
[19] = Negative inotropic activity in guinea pig left atria assessed as decrease of 1 Hz current-induced developed tension at 5 x 10^-7 M relative to control; format: functional, Cavia porcellus, Cardiac atrium; design: scale not given: the % may be the effect or the level left
[20] = […] chronotropic activity in guinea pig spontaneously beating right atria assessed as decrease in atrial rate at 10^-4 M relative to control; format: functional, Cavia porcellus, Cardiac atrium; design: scale not given: the % may be the effect or the level left
[21] = Negative chronotropic activity in guinea pig spontaneously beating right atria assessed as decrease in atrial rate at 5 x 10^-5 M relative to control; format: functional, Cavia porcellus, Cardiac atrium; design: scale not given: the % may be the effect or the level left

T1 sequence (Q14524 whole entry): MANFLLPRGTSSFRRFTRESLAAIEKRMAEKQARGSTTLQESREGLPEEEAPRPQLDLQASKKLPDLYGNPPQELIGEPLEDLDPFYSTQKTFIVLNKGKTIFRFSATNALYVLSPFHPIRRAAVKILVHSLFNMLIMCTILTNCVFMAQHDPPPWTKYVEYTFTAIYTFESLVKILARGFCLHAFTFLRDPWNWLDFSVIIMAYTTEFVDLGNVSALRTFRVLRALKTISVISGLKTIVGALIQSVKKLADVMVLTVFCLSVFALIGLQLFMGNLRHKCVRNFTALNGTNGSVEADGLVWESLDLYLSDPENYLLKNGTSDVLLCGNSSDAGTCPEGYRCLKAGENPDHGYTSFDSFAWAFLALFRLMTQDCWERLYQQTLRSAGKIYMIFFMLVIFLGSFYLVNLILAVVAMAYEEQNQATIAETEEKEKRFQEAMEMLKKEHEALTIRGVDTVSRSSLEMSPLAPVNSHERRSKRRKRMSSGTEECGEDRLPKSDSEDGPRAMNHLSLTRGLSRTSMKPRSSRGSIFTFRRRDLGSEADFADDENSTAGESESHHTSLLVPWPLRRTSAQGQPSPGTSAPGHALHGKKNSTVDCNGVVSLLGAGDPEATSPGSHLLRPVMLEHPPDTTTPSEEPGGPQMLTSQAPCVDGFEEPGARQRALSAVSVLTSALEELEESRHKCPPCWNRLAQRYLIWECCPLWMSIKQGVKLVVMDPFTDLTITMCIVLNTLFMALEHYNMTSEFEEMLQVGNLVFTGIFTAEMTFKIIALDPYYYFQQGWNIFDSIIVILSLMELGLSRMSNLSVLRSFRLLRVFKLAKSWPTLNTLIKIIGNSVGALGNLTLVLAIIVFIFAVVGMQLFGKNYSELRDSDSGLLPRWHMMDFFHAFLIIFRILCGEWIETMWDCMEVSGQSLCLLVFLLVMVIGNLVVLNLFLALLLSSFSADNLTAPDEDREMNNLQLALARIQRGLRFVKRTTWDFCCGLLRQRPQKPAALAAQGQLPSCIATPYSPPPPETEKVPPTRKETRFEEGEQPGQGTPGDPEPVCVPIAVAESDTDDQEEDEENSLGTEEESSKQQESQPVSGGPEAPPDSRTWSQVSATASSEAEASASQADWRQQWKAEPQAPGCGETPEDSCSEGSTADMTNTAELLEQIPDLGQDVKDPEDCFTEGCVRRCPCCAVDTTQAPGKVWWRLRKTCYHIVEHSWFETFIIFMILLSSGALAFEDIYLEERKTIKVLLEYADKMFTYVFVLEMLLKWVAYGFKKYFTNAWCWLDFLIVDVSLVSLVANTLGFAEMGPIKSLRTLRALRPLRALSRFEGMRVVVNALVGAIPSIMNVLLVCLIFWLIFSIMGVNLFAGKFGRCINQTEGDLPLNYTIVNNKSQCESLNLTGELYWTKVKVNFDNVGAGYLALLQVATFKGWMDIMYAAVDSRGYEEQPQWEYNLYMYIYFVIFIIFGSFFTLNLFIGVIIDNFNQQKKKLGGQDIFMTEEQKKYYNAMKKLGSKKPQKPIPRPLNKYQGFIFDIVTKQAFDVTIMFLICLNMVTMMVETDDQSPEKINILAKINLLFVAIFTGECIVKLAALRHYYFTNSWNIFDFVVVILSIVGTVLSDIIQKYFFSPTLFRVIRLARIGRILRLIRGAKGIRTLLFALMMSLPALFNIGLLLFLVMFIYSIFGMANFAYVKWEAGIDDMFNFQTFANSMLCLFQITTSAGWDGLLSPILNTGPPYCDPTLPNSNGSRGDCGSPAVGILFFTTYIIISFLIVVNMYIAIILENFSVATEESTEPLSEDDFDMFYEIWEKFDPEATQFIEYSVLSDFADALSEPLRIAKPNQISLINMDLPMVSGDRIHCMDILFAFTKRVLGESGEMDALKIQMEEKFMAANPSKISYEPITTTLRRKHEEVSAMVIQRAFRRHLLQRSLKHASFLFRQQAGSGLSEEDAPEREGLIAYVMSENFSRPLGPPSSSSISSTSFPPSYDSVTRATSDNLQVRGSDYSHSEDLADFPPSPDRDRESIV

## Cc1ccc(O)c(C)c1OCC(C)N (racemic)
[1]
  Papp: 300.6 ×10⁻⁶ cm/s
[2]
  IC50: 174 µM
[3]
  IC50: 30 µM
[4]
  Activity: 19%
[5]
  EC50: 10.2 µM
[6]
  Activity: 96%
[7]
  EC50: 0.098 µM
[8]
  Emax at 100 µM: 72%
[9]
  Activity: Non-toxic
[10]
  Ratio: 2.1
[11]
  EC50: > 2000 µM
[12]
  Papp: 142.5 ×10⁻⁶ cm/s
[13]
  Activity: 39%

## Cc1cccc(C)c1OCC(C)N (racemic) [MEXILETINE]
[14]
  EC30: 0.014 µM
[4]
  Activity: 5%
[5]
  EC50: 11.6 µM
[7]
  EC50: 0.045 µM
[8]
  Emax at 100 µM: 64%
[11]
  EC50: 2000 µM

## CCCCc1oc2ccccc2c1C(=O)c1cc(I)c(OCCN(CC)CC)c(I)c1 [AMIODARONE]
[4]
  Activity: 3%
[15]
  Activity: 30%
[8]
  Emax at 100 µM: 10%
[13]
  Activity: 72%

## CCN(CC)CC(=O)Nc1c(C)cccc1C [LIDOCAINE]
[16]
  Activity: 29%
[17]
  Activity: 88%
[4]
  Activity: 14%
[7]
  EC50: 0.017 µM
[18]
  Emax at 50 µM: 34%

## CCN(CC)CCNC(=O)c1ccc(N)cc1 [PROCAINAMIDE]
[18]
  Emax at 50 µM: 11%

## CCN(CC)CCOC(=O)c1ccc(N)cc1 [PROCAINE]
[19]
  Activity: 92%
[4]
  Activity: 3%
[7]
  EC50: 0.014 µM
[20]
  Activity: 9%

## C=C[C@H]1CN2CC[C@H]1C[C@@H]2[C@@H](O)c1ccnc2ccc(OC)cc12 [QUINIDINE]
[14]
  EC30: 3.99 µM
[4]
  Activity: 30%
[6]
  Activity: 71%
[18]
  Emax at 50 µM: 69%
[21]
  Activity: 86%
